Laboratory results as given in PMC9321647, “Curcumin-Based β-Diketo Ligands for Ga^3+: Thermodynamic Investigation of Potential Metal-Based Drugs” (Pharmaceuticals, 2022).
Read-outs that look alike come from different tables or passages of the source. Marks after values point to notes of the source that are not given here.

Legend:
[1] = Kinetic stability of ligands in simulated physiological conditions (UV-Vis); format: physicochemical; conditions: for Stability: percentage of the residual ligand after 4 h: PBS, pH 7.4, 37 °C in darkness; for Stability ranking (residual ligand after 4 h): rank among the 7 ligands, 1 = most stable
Procedure: The chemical stability of ligands and metal complexes at the M:L 1:L molar ratio at 37 °C in darkness was evaluated by UV−Vis spectroscopy as a change in absorbance in the 250−600 nm range over an overall period of 8 h. Solutions (5.0 × 10^–5 mol L^–1) of the ligands were prepared in 0.1 mol L^–1 phosphate-buffered solution (PBS) at pH 7.4. Spectra were recorded every 30 min. All profiles were linearized as the hyperbolic function defined by Equation (2), which represents an empirical model that describes drug decomposition or release well [42]:(2) t/f%=at+b where f% is the percentage of the residual compound at time t (min) referred to the starting concentration at time zero determined by reading the absorbance at λmax.

[2] = Keto-enol/diketo tautomer amounts by 1H NMR; format: physicochemical; conditions: molar percentage, MeOD-d4, 298 K; for KE (%) amount of keto–enol form: for 2 includes KE form of the Z isomer (6%)
Procedure: NMR spectra were recorded by means of a Bruker Biospin FT-NMR AVANCE III HD (600 MHz) spectrometer equipped with a CryoProbe BBO H&F 5 mm in inverse detection. The nominal frequencies were 150.90 MHz for ^13C and 600.13 MHz for ^1H, respectively. For each sample, 1–5 mg were weighed and diluted up to 0.6 mL with a proper solvent in a 5 mm NMR tube; 90° pulse was calibrated for each sample, and standard NMR parameters were used to achieve quantitative results (relaxation delay, 10 s). Proton and carbon chemical shifts are given in parts per million (ppm) versus external TMS and were determined by reference to the solvent residual signals. Typical 2D homo- and heteronuclear techniques were used for assignment, i.e., ^1H,^1H COSY, ^1H,^13C HSQC, ^1H,^13C HMBC. NMR investigations of Ga^3+:L systems were performed in MeOD-d4 by adding small amounts of a Ga(NO3)3 solution (10 μL each) to 1 mM ligand solution (0.6 mL) until reaching the desired metal-to-ligand molar ratio. The complexation reaction is fast, and spectra were registered few minutes after the addition. Two-dimensional ^1H,^13C heteronuclear multiple bond correlation (HMBC) experiments (hmbcgpndqf in Bruker library) were performed via heteronuclear zero and double quantum coherence, optimized on long-range couplings (^3/4JHC = 8 Hz), with no decoupling during acquisition, and gradient pulses were used for selection. The relative percentages of the isomeric forms were estimated on the basis of the NMR data. Particularly, ^1H NMR spectra were acquired in quantitative conditions being D1 (relaxation delay) at least five times the T1 of the slowest relaxing signal of interest. The raw data were Fourier-transformed, and then the processing was performed by zero filling (SI = TD), line broadening (lb 0.3 Hz), accurate phasing and correcting the baseline. The most isolated signals were selected for integration, i.e., the vinyl protons (H-3 and H-4), and an average of the integrated area (A) of H-3 and H-4 was used for relative quantitation, according to the following equation: %Tautomeri=(A(H−3)i+(A(H−4)i)/2/∑i(A(H−3)i+(A(H−4)i)/2×100

[3] = Spectrophotometric pH titrations of ligands (protonation constants, pKa); format: physicochemical; conditions: for logβ011 overall protonation constant / logβ012 overall protonation constant / logβ013 overall protonation constant / logβ014 overall protonation constant: HypSpec, spectrophotometric data; for pKa: aqueous solution (methanol stock diluted in water); for prevailing charge form at physiological pH (7.4): pH 7.4, species distribution
Procedure: (§1) UV–visible spectra were recorded with a JASCO V-570 UV/Vis/NIR spectrophotometer at 298 K in the 250–600 nm spectral range employing quartz cells (1 cm optical path). To perform spectrophotometric titrations, ligands (denoted generally as L in the following) were dissolved in methanol to give a mother solution (2.50 mM), that was then diluted in water in order to obtain a final concentration of 50 μM. The metal/ligand (M:L) solutions were obtained by adding appropriate quantities of Ga(NO3)3 as methanol solutions (5–10 mM) in order to obtain the metal-to-ligand 1:1 molar ratio (L = 50 μM and V = 25 mL). For both L and M:L systems, pH (initial value of about 5) was varied by adding small amounts (<1 μL) of concentrated NaOH (4 M) up to ca. pH 11, thus to consider volume variations negligible. To evaluate the complexation ratio, constant additions of the M solution (10 µL each time, M = 10^–2 M) were dropped into the ligand solution (V = 25 mL, L = 50 μM) using a micropipette in order to reach different M:L molar ratios. A constant ionic strength (NaNO3, 0.1 M) was maintained in all experiments. Spectrophotometric investigations of iron(III) systems were performed in the same conditions; the Fe^3+ solution was freshly prepared in methanol starting from Fe(NO3)3·9H2O. The overall protonation constants (logβqr) and the overall stability constants of metal complexes (logβpqr) were evaluated from spectrophotometric data. The stability constants (βpqr), defined by the following equations:(3) pM^m++qL^l^−+rH^+⇌MpLqHr(mp−lq+r) (4) βpqr=[MpLqHr(mp−lq+r)]/[M^m+]^p·[L^l−]^q·[H^+]^r where L is the ligand in the completely dissociated form and H is proton, were refined using least-squares calculation in HypSpec. The results of least-squares calculation include the standard deviations and correlation coefficients of the refined parameters. The quantities are obtained by performing error propagation calculation from the experimental errors onto the parameters. The stability constant refinement furnishes least-squares estimates of the standard deviation, σ, of the stability constant β. The error on logβ is calculated as follows: σ(logβ) = [log(β + σ) − log(β − σ)]/2.

[4] = Spectrophotometric pH-metric titrations of Ga^3+:ligand systems (stability constants, pGa, speciation); format: physicochemical; conditions: for logK11 apparent formation constant (Ga^3+, M:L 1:1) / logK12 apparent formation constant (Ga^3+, M:L 1:2) / logK13 apparent formation constant (Ga^3+, M:L 1:3): estimated from logβMLH; for Prevailing Species (pH 5.5) / Prevailing Species (pH 7.4): Ga^3+ complex species; for Prevailing Species (pH 7.4): ** possible formation of gallium hydroxide species; for pGa (−log[Ga^3+]free): [Ga^3+]total = 1 μM, [L]total = 10 μM, pH 7.4, 25 °C
Procedure: as §1
Hydroxide species, such as [Ga(OH)2]^+, were taken into account for calculations. The hydrolysis constants for Ga^3+ are as follows: logβ1,1,0 = −3.93; logβ2,1,0 = −7.73; logβ3,1,0 = −12.38; logβ4,1,0 = −15.96; logβ32,13,0 = −66.3; logβ3,1,0(s) = −3.54 [43]; pGa is defined as (−log[Ga^3+]free) and is calculated at specific conditions (Ga^3+total = 1 μM, Ltotal = 10 μM, pH 7.4, 25 °C). For the calculation of the iron(III) overall stability constants, the presence of [Fe(OH)]^2+, [Fe(OH)2]^+ and [Fe(OH)3] species was taken into account.

[5] = tested on: HCT116 colon carcinoma cells; assay: MTT cell viability assay; format: cell-based, Human; conditions: Homo sapiens, HCT-116, HCT116, 48 h of treatment, mean
Procedure: Human colorectal carcinoma HCT116 cells (#91091005, ECACC) were grown in an IMDM medium (Biowest) supplemented with 2 mM glutamine, 100 IU/mL penicillin, 100 μg/mL streptomycin and 10% FBS (Gibco). The cell lines were grown at 37 °C in a humidified incubator containing 5% CO2. The cells were verified to be mycoplasma-free and passaged < 3 months. The inhibition of cell proliferation was measured by colorimetric 3-(4,5-dimethylthiazol-2-yl)-2,5-diphenyltetrazolium bromide (MTT) assay. GI50 concentrations were determined using the CompuSyn software version 1.0 (ComboSyn, Inc., Paramus, NJ USA) (free download via www.combosyn.com, accessed on 30 May 2022), and statistical analyses were performed using the GraphPad PRISM software (version 6.01 for Windows, GraphPad Software, San Diego, California USA GraphPad Prism) using unpaired t-test. Data were considered to be statistically significant if p < 0.05 (*), p < 0.01 (**), p < 0.001(***) and p < 0.0001 (****).

[6] = 298 K, calculated from logβ values, * = keto–enol moiety dissociation
[7] = 298 K, calculated from logβ values, * = keto–enol moiety dissociation, read-out: pKa1
[8] = 298 K, calculated from logβ values, * = keto–enol moiety dissociation, read-out: pKa2
[9] = 298 K, calculated from logβ values, * = keto–enol moiety dissociation, read-out: pKa3
[10] = 298 K, calculated from logβ values, read-out: pKa4

Molecule | Stability: percentage of the residual ligand after 4 h [1] [%] | Stability ranking (residual ligand after 4 h) [1] | KK (%) amount of diketo form [2] [%] | KE (%) amount of keto–enol form [2] | logβ011 overall protonation constant ([3]; 298 K) | logβ012 overall protonation constant ([3]; 298 K) | log β 110 overall stability constant (Ga^3+) ([4]; 298 K, HypSpec) | log β 120 overall stability constant (Ga^3+) ([4]; 298 K, HypSpec) | log β 130 overall stability constant (Ga^3+) ([4]; 298 K, HypSpec) | logK11 apparent formation constant (Ga^3+, M:L 1:1) ([4]; 298 K) | logK12 apparent formation constant (Ga^3+, M:L 1:2) ([4]; 298 K) | logK13 apparent formation constant (Ga^3+, M:L 1:3) ([4]; 298 K) | Prevailing Species (pH 5.5) [4] | Prevailing Species (pH 7.4) [4] | pGa (−log[Ga^3+]free) [4] | pKa [3, 7] | logβ013 overall protonation constant ([3]; 298 K) | logβ014 overall protonation constant ([3]; 298 K) | pKa [3, 8] | pKa [3, 9] | also measured
(3Z,5E)-4-hydroxy-6-(3-methoxy-4-methylphenyl)hexa-3,5-dien-2-one [Compound 1] | 77 | 3 | 4 | 96% | 10.212 (2) | 18.509 (3) | 11.78 (4) | 20.30 (5) | 28.37 (7) | 7.38 (3) | 14.35 (3) | 19.1 (4) | [Ga(HL)3] | [Ga(L)3]^3− | 19.0 |  |  |  |  |  | pKa1 [3, 6]: 8.297 (5); pKa2 [3, 6]: 10.212 (2) *; log β 111 overall stability constant (Ga^3+) ([4]; 298 K, HypSpec): 17.59 (3); log β 122 overall stability constant (Ga^3+) ([4]; 298 K, HypSpec): 34.77(3); log β 133 overall stability constant (Ga^3+) ([4]; 298 K, HypSpec): 49.7 (4)
COc1cc(/C=C/C(O)=C/C(C)=O)ccc1OCCCBr [Compound 2, (3Z,5E)-6-[4-(3-bromopropoxy)-3-methoxyphenyl]-4-hydroxyhexa-3,5-dien-2-one] | 83 | 1 | 12 | 88 * % | 10.903 (8) |  | 8.129 (9) | 15.185 (4) | 20.45 (3) | 8.129 (9) | 15.185 | 20.45 | [Ga(L)3] | [Ga(L)3] | 13.1 | 10.9 |  |  |  |  | 
COc1cc(/C=C/C(=O)CC(=O)/C=C/c2ccc(O)c(OC)c2)ccc1O [CUR, Curcumin] |  |  |  |  |  |  |  |  |  |  |  |  |  |  |  |  |  |  |  |  | GI50 [5]: 12.9 µM
O=C(O)CCC(C(=O)/C=C/c1ccc(O)cc1)C(=O)/C=C/c1ccc(O)cc1 [Compound 6, (6E)-7-(4-hydroxyphenyl)-4-[(2E)-3-(4-hydroxyphenyl)prop-2-enoyl]-5-oxohept-6-enoic acid] | 73 | 4 | 75 | 25% | 11.42 (2) | 21.12 (6) |  |  |  | 6.67 |  |  |  |  | 14.0 | ~5 | 29.76 (7) | 34.62 (5) | 8.64 | 9.7 | pKa [3, 10]: 11.4; prevailing charge form at physiological pH (7.4) [3]: negatively charged; log β 112 overall stability constant (Ga^3+) ([4]; 298 K, HypSpec): 27.79 (5); log β 113 overall stability constant (Ga^3+) ([4]; 298 K, HypSpec): 34.09 (5)
COc1cc(/C=C/C(=O)C(CCC(=O)O)C(=O)/C=C/c2ccc(O)c(OC)c2)ccc1O [Compound 7, (6E)-7-(3-methoxy-4-hydroxyphenyl)-4-[(2E)-3-(3-methoxy-4-hydroxyphenyl)prop-2-enoyl]-5-oxohept-6-enoic acid] | 79 | 2 | 75 | 25% | 12.22 (2) | 21.61 (5) |  |  |  | 6.68 |  |  | [Ga(H2L)2]^+ | [Ga(H2L)2]^+ ** | 15.3 | ~5 | 29.98 (4) | 34.92 (9) | 8.37 | 9.39 | pKa [3, 10]: 12.2; prevailing charge form at physiological pH (7.4) [3]: negatively charged; log β 112 overall stability constant (Ga^3+) ([4]; 298 K, HypSpec): 28.29 (5); log β 113 overall stability constant (Ga^3+) ([4]; 298 K, HypSpec): 36.51 (6)
